Test results published in US20200040326A1, “METHOD FOR PROVIDING A DNA-ENCODED LIBRARY, DNA-ENCODED LIBRARY AND METHOD OF DECODING A DNA-ENCODED LIBRARY” (TU Dresden, priority 2018, published 2020).

Target: enzyme carbonic anhydrase II (Homo sapiens, UniProt P00918)
Settings: substance as DNA conjugate within the DEL; primer pairs 1a/1b (whole library), 2a/2b (CBS), 3a/3b (Theo); small ΔCq reflects large enrichment

SMILES: Cn1cnc2c1c(=O)[nH]c(=O)n2C [Theo, theobromine]
- enrichment after selection (from ΔCq, difference in qPCR cycle before and after selection): not enriched
